A short description of series [1]: Plasma concentration of PLX038, released SN-38 and SN-38G in rats bearing HT29 tumor xenografts (HPLC with fluorescence monitoring). Format: in vivo. As to conditions: rat with HT29 xenograft, ~200 mg/kg PLX038, conjugate.
A further series deals with HT29 tumor xenografts. As to the kind of experiment: Levels of conjugate and released SN-38 in tumor versus plasma, HT29 xenograft-bearing rats.
The next series relates to MX-1 tumor xenografts. As to the kind of experiment: Efficacy of PLX038A (PEG-SN38) in mice bearing MX-1 tumor xenografts. Conditions: 137 µmole/kg irinotecan single dose.
In the next series the test system is HT-29 xenograft. As to conditions: irinotecan control.
Setting [2] is: 14 days post-dosing, single 200 mg/kg PLX038.
Setting [3] is: administered dose 200 mg/kg PLX038.

Method for HT-29 xenograft: Varying doses of the unlabeled PEG~(SN-38)4 conjugate are injected into animals.

As to `CCc1c2c(nc3ccc(O)cc13)-c1cc3c(c(=O)n1C2)COC(=O)[C@]3(O)CC` [SN-38], the “half-life in plasma / systemic circulation” value in series [1] was 50 h. Further, in the series with HT29 tumor xenografts (setting [2]), the accumulation in tumors entry is “high accumulation” and the serum levels entry was “undetectable”. In the series with HT29 tumor xenografts (setting [3]), the “concentration of released SN-38 in the tumor” value is “about 80 pm/g” and the “released SN-38 in the circulation” value is given as “barely detectable”. Moreover, in the series with HT29 tumor xenografts (lower dosages of PLX038), the “conjugate / free drug in the plasma” value is given as “not detected in the plasma” and the “conjugate / free drug in the tumor” value is on record as “significant concentrations”.
Consider `CCc1c2c(nc3ccc(OC(=O)N4CCC(N5CCCCC5)CC4)cc13)-c1cc3c(c(=O)n1C2)COC(=O)[C@]3(O)CC` [irinotecan], for which, in the series with MX-1 tumor xenografts, the “effect on tumor growth compared with vehicle” value was “only somewhat better than vehicle”. Further, the “tumor inhibition relative to PLX038” value in the series on HT-29 xenograft is given as “near-equal tumor inhibition”. In addition, the “gastrointestinal (GI) toxicity” value with HT-29 xenograft (rat HT-29 xenograft model, PLX038 single 200 mg/kg) is “significant GI toxicity”.

The values are drawn from patent publication US20230321286A1, “PROTOCOL FOR MINIMIZING TOXICITY OF COMBINATION DOSAGES AND IMAGING AGENT FOR VERIFICATION” (priority 2018, published 2023).
